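1) Cells in 96-well plates. 2) Compound, 48 h, 5 concentrations. 3) Linear interpolation between surrounding doses. 4) Unreached endpoint = highest concentration. GI50 marks 50% less growth.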 Calls of active or inactive are those of the source. No stated cut-off is given here; in the data, active = GI50 up to about 1.1 µM and inactive = higher.
What was measured:
Assay in all cases: NCI anticancer screen, dose series, 48 h
KM12 = system: KM12
LOX IMVI = system: LOX IMVI
NCI-H23 = system: NCI-H23
CAKI-1 = system: CAKI-1
RPMI-8226 = system: RPMI-8226
SK-OV-3 = system: SK-OV-3
EKVX = system: EKVX
OVCAR-8 = system: OVCAR-8
SF-295 = system: SF-295
TK-10 = system: TK-10
UACC-257 = system: UACC-257
SW-620 = system: SW-620
786-0 = system: 786-0
CCRF-CEM = system: CCRF-CEM
SN12C = system: SN12C
SK-MEL-5 = system: SK-MEL-5

Measured: GI50

CC(=O)NC(CCCN(Cc1ccccc1)C(=O)N(C)N=O)C(=O)NCc1ccccc1 (stereo unspecified)
inactive: KM12 > 100 µM | LOX IMVI > 100 µM | NCI-H23 > 100 µM | CAKI-1 > 100 µM | RPMI-8226 > 100 µM | SK-OV-3 > 100 µM | EKVX > 100 µM | OVCAR-8 > 100 µM | SF-295 > 100 µM | TK-10 > 100 µM | UACC-257 > 100 µM | SW-620 > 100 µM | 786-0 > 100 µM | CCRF-CEM > 100 µM | SN12C > 100 µM | SK-MEL-5 > 100 µM

COc1ccc2ccc([Se]c3ccc4ccc(OC)cc4c3)cc2c1
inactive: KM12 51.9 µM | LOX IMVI > 100 µM | NCI-H23 > 100 µM | CAKI-1 38.7 µM | RPMI-8226 49.9 µM | SK-OV-3 > 100 µM | OVCAR-8 21.8 µM | SF-295 74.6 µM | TK-10 > 100 µM | UACC-257 > 100 µM | SW-620 > 100 µM | 786-0 49.7 µM | CCRF-CEM 49.8 µM | SN12C 90.6 µM | SK-MEL-5 > 100 µM

O=C(Cc1nc2ccccc2o1)C(=O)Nc1ccccc1C(F)(F)F
inactive: KM12 > 100 µM | LOX IMVI > 100 µM | NCI-H23 > 100 µM | CAKI-1 > 100 µM | RPMI-8226 > 100 µM | SK-OV-3 > 100 µM | EKVX > 100 µM | OVCAR-8 > 100 µM | SF-295 > 100 µM | TK-10 > 100 µM | UACC-257 > 100 µM | SW-620 > 100 µM | 786-0 > 100 µM | CCRF-CEM > 100 µM | SN12C > 100 µM | SK-MEL-5 > 100 µM

C[Si](C)(C)C1(Sc2ccccc2)SCCCS1
inactive: KM12 64.7 µM | LOX IMVI 31.6 µM | NCI-H23 31.6 µM | CAKI-1 54.6 µM | RPMI-8226 24.6 µM | SK-OV-3 > 100 µM | EKVX 47.9 µM | OVCAR-8 33.8 µM | SF-295 54.3 µM | TK-10 > 100 µM | UACC-257 38.7 µM | SW-620 53.1 µM | 786-0 46.5 µM | CCRF-CEM 14.8 µM | SN12C 27 µM | SK-MEL-5 72.9 µM

CCCCCc1cc(OC(=O)c2c(O)cc(OC)cc2CCCCC)cc(O)c1C(=O)O
inactive: KM12 17.3 µM | LOX IMVI 17.7 µM | NCI-H23 12.4 µM | CAKI-1 19.1 µM | RPMI-8226 14.5 µM | SK-OV-3 16.7 µM | EKVX 19 µM | OVCAR-8 18.2 µM | SF-295 16.8 µM | TK-10 18.6 µM | SW-620 18.3 µM | 786-0 16.4 µM | CCRF-CEM 20.7 µM | SN12C 15.9 µM | SK-MEL-5 14.8 µM

COc1cc2c(oc(=O)c3cc4cc([Si](C)(C)C)oc4c(OC)c32)c2cccc(O)c12
inactive: KM12 > 100 µM | LOX IMVI > 100 µM | NCI-H23 > 100 µM | CAKI-1 > 100 µM | RPMI-8226 > 100 µM | SK-OV-3 > 100 µM | EKVX > 100 µM | OVCAR-8 > 100 µM | SF-295 > 100 µM | TK-10 > 100 µM | UACC-257 > 100 µM | SW-620 > 100 µM | 786-0 > 100 µM | CCRF-CEM > 100 µM | SN12C > 100 µM | SK-MEL-5 > 100 µM

O=C1COc2cc3c(cc2N1)SCCC(=O)N3
inactive: KM12 > 100 µM | NCI-H23 > 100 µM | CAKI-1 > 100 µM | RPMI-8226 > 100 µM | SK-OV-3 > 100 µM | EKVX > 100 µM | OVCAR-8 > 100 µM | SF-295 > 100 µM | TK-10 > 100 µM | UACC-257 > 100 µM | SW-620 > 100 µM | 786-0 > 100 µM | CCRF-CEM > 100 µM | SN12C > 100 µM | SK-MEL-5 > 100 µM

CC1=CC(/C=C(\C)CCCc2ccoc2)C2(OC(=O)C(C)=C2O)[C@H]2C1CC[C@@H]2C (stereo partly specified)
inactive: KM12 31.8 µM | LOX IMVI 21.8 µM | NCI-H23 20.5 µM | CAKI-1 32.1 µM | RPMI-8226 13.3 µM | SK-OV-3 26.2 µM | EKVX 31.7 µM | OVCAR-8 28.6 µM | SF-295 20.7 µM | TK-10 29.2 µM | UACC-257 29.5 µM | SW-620 33.6 µM | 786-0 14.6 µM | CCRF-CEM 22.1 µM | SN12C 20.5 µM | SK-MEL-5 20.3 µM

CC(=O)Oc1c2c(c(O)c3ccccc13)C(n1cnc3c(ncn3C3OC(CO)C4OC(C)(C)OC43)c1=N)CCC2 (stereo unspecified)
inactive: KM12 14.4 µM | LOX IMVI 4.81 µM | NCI-H23 16.8 µM | CAKI-1 25.4 µM | RPMI-8226 3.1 µM | SK-OV-3 19 µM | EKVX 22.2 µM | OVCAR-8 11.2 µM | SF-295 13.9 µM | TK-10 21.5 µM | UACC-257 10.2 µM | SW-620 15.3 µM | 786-0 14.5 µM | CCRF-CEM 5.24 µM | SN12C 18.1 µM | SK-MEL-5 12.1 µM

O=C1NC2OC(CO)C(O)C(O)C2O1 (stereo unspecified)
inactive: KM12 > 100 µM | LOX IMVI > 100 µM | NCI-H23 > 100 µM | CAKI-1 > 100 µM | SK-OV-3 > 100 µM | EKVX > 100 µM | OVCAR-8 > 100 µM | SF-295 > 100 µM | TK-10 > 100 µM | UACC-257 > 100 µM | SW-620 > 100 µM | 786-0 > 100 µM | CCRF-CEM > 100 µM | SN12C > 100 µM | SK-MEL-5 > 100 µM

CCc1cccc(C)c1NC(=O)CCc1nnc2s/c(=C\c3cccc4ccccc34)c(=O)n12
inactive: KM12 92.7 µM | LOX IMVI 80.7 µM | NCI-H23 > 100 µM | CAKI-1 > 100 µM | RPMI-8226 23.8 µM | SK-OV-3 > 100 µM | OVCAR-8 > 100 µM | SF-295 71.1 µM | TK-10 > 100 µM | UACC-257 > 100 µM | SW-620 > 100 µM | 786-0 > 100 µM | CCRF-CEM 92.9 µM | SN12C > 100 µM | SK-MEL-5 > 100 µM

Cc1ccc(SSc2ccc(C)cc2C(=O)O)c(C(=O)O)c1
inactive: KM12 > 100 µM | LOX IMVI > 100 µM | NCI-H23 > 100 µM | CAKI-1 > 100 µM | SK-OV-3 > 100 µM | EKVX > 100 µM | OVCAR-8 > 100 µM | SF-295 > 100 µM | TK-10 > 100 µM | UACC-257 > 100 µM | SW-620 > 100 µM | 786-0 > 100 µM | CCRF-CEM > 100 µM | SN12C > 100 µM | SK-MEL-5 > 100 µM

Cc1cccc(C(C)(C)C)c1NC(=O)CC1Sc2ccccc2NC1=O (stereo unspecified)
inactive: KM12 95.1 µM | NCI-H23 46.6 µM | CAKI-1 87.3 µM | RPMI-8226 19 µM | SK-OV-3 > 100 µM | EKVX > 100 µM | OVCAR-8 94.2 µM | SF-295 > 100 µM | TK-10 41.7 µM | UACC-257 36.2 µM | SW-620 17.3 µM | 786-0 46 µM | CCRF-CEM 55.7 µM | SN12C > 100 µM | SK-MEL-5 > 100 µM
